# Patent publication US20220016060A1, “USE OF SODIUM 2-(3-PENTYLPHENYL)ACETATE IN THE TREATMENT OF ALSTRÖM SYNDROME” (LIMINAL BIOSCIENCES LIMITED, priority 2018, published 2022)
# Where “and” joins values, the source holds several entries; their conditions need not be identical. Equal values may be shown once.
# Legend:
# Assay type in all cases: in vivo, human
# ALMS patients [1] = experiment: Urinary kidney toxicity biomarkers (MCP-1, KIM-1, clusterin, cystatin C, osteopontin); details: analyte/creatinine ratio in urine; 800 mg daily oral
# Procedure: The study was a Phase 2, single-centre, single-arm, open-label study of sodium 2-(3-pentylphenyl)acetate administered at a total daily oral dose of 800 mg for up to 72 weeks in subjects with ALMS was undertaken. The initial duration of the study was 24 weeks, and subjects were offered to enrol into an extension phase of […]. The schedule of study procedures for the enrolment, intervention, and assessments for participants is outlined in FIG. 1. Sodium 2-(3-pentylphenyl)acetate was formulated in soft gelatine capsules containing 200 mg of Sodium 2-(3-pentylphenyl)acetate (amorphous powder) per capsule, polyethylene glycol 400, National Formulary (NF), hydrochloric acid (for pH adjustment), and water. […] The levels of these markers was assessed at baseline and after 24 weeks of treatment with sodium 2-(3-pentylphenyl)acetate in ALMS patients, and the results are reported in Table 15.
# ALMS patients [2] = experiment: C-peptide; details: for Change from Baseline C-Peptide, Mean / Change from Baseline C-Peptide, Median: 800 mg daily oral
# Procedure: (§1) The study was a Phase 2, single-centre, single-arm, open-label study of sodium 2-(3-pentylphenyl)acetate administered at a total daily oral dose of 800 mg for up to 72 weeks in subjects with ALMS was undertaken. The initial duration of the study was 24 weeks, and subjects were offered to enrol into an extension phase of 36 or 48 weeks. The schedule of study procedures for the enrolment, intervention, and assessments for participants is outlined in FIG. 1. Sodium 2-(3-pentylphenyl)acetate was formulated in soft gelatine capsules containing 200 mg of Sodium 2-(3-pentylphenyl)acetate (amorphous powder) per capsule, polyethylene glycol 400, National Formulary (NF), hydrochloric acid (for pH adjustment), and water.
# ALMS patients [3] = experiment: Glycated hemoglobin (HbA1c); details: for Change from Baseline HbA1c, Mean / Change from Baseline HbA1c, Median / HbA1c: 800 mg daily oral; for HbA1c: individual subjects
# Procedure: as §1, with “water. Glycated hemoglobin (HbA1c) is measured primarily to determine the three-month average blood sugar level, and is used as a diagnostic test for diabetes mellitus and as an assessment test for glycemic control in people with diabetes. HbA1c was assessed in ALMS patients treated with sodium 2-(3-pentylphenyl)acetate. There was a statistically significant mean decrease of 0.53% (p=0.0144) in HbA1c from baseline after 12 weeks of treatment (Table 16).” for “water.”
# [4] = Subject 826-001-001, 204-day break in treatment
compound,measurement,setting,value
CCCCCc1cccc(CC(=O)[O-])c1.[Na+] [sodium 2-(3-pentylphenyl)acetate],"Urinary Clusterin, Mean Fold Change from Baseline to Week 24",ALMS patients [1],0.66
same,"Urinary Clusterin, mean change from Baseline to Week 24 (%)",ALMS patients [1],−34%
same,"Urinary Cystatin C, Mean Fold Change from Baseline to Week 24",ALMS patients [1],0.75
same,"Urinary Cystatin C, mean change from Baseline to Week 24 (%)",ALMS patients [1],−25%
same,"Urinary KIM-1, Mean Fold Change from Baseline to Week 24",ALMS patients [1],0.67
same,"Urinary KIM-1, mean change from Baseline to Week 24 (%)",ALMS patients [1],−33%
same,"Urinary MCP-1, Mean Fold Change from Baseline to Week 24",ALMS patients [1],0.85
same,"Urinary MCP-1, mean change from Baseline to Week 24 (%)",ALMS patients [1],−15%
same,"Urinary Osteopontin, Mean Fold Change from Baseline to Week 24",ALMS patients [1],0.82
same,"Urinary Osteopontin, mean change from Baseline to Week 24 (%)",ALMS patients [1],−18%
same,"Change from Baseline C-Peptide, Mean","ALMS patients [2]; EP Week 12 (Week 36), N=10",-350.90 pmol/L
same,"Change from Baseline C-Peptide, Median","ALMS patients [2]; EP Week 12 (Week 36), N=10",6.00 pmol/L
same,"Change from Baseline C-Peptide, Mean","ALMS patients [2]; EP Week 24 (Week 48), N=9",-286.67 pmol/L
same,"Change from Baseline C-Peptide, Median","ALMS patients [2]; EP Week 24 (Week 48), N=9",-40.00 pmol/L
same,"Change from Baseline C-Peptide, Mean","ALMS patients [2]; EP Week 36 (Week 60), N=8",219.88 pmol/L
same,"Change from Baseline C-Peptide, Median","ALMS patients [2]; EP Week 36 (Week 60), N=8",-31.00 pmol/L
same,"Change from Baseline C-Peptide, Mean","ALMS patients [2]; EP Week 48 (Week 72), N=3",810.00 pmol/L
same,"Change from Baseline C-Peptide, Median","ALMS patients [2]; EP Week 48 (Week 72), N=3",737.00 pmol/L
same,increase in C-peptide from baseline,ALMS patients [2]; [4],817 pmol/L
same,increase in C-peptide from baseline,"ALMS patients [2]; Subject 826-001-004, 30-day break in treatment",1.757e+06 pmol/L
same,increase in C-peptide from baseline,"ALMS patients [2]; Subject 826-001-005, 39-day break in treatment",737 pmol/L
same,increase in C-peptide from baseline,"ALMS patients [2]; Subject 826-001-007, 32-day break in treatment",3580 pmol/L
same,"Change from Baseline C-Peptide, Mean","ALMS patients [2]; Week 12, N=12",473.50 pmol/L
same,"Change from Baseline C-Peptide, Median","ALMS patients [2]; Week 12, N=12",102.50 pmol/L
same,"Change from Baseline C-Peptide, Mean","ALMS patients [2]; Week 24, N=12",41.25 pmol/L
same,"Change from Baseline C-Peptide, Median","ALMS patients [2]; Week 24, N=12",84.50 pmol/L
same,subjects in whom HbA1c decreased or did not change from baseline,ALMS patients [3]; 8/12 subjects,66.7%
same,"Change from Baseline HbA1c, Mean","ALMS patients [3]; EP Week 12 (Week 36), N=10",0.24%
same,"Change from Baseline HbA1c, Median","ALMS patients [3]; EP Week 12 (Week 36), N=10",0.00%
same,"Change from Baseline HbA1c, Mean","ALMS patients [3]; EP Week 24 (Week 48), N=10",−0.28%
same,"Change from Baseline HbA1c, Median","ALMS patients [3]; EP Week 24 (Week 48), N=10",−0.30%
same,"Change from Baseline HbA1c, Mean","ALMS patients [3]; EP Week 36 (Week 60), N=9",−0.18%
same,"Change from Baseline HbA1c, Median","ALMS patients [3]; EP Week 36 (Week 60), N=9",−0.10%
same,"Change from Baseline HbA1c, Mean","ALMS patients [3]; EP Week 48 (Week 72), N=3",0.13%
same,"Change from Baseline HbA1c, Median","ALMS patients [3]; EP Week 48 (Week 72), N=3",0.10%
same,HbA1c increase above baseline by the last study visit,ALMS patients [3]; [4],1%
same,HbA1c reduction below baseline,"ALMS patients [3]; Subjects 826-001-007, 826-001-009 and 826-001-014",1%
same,"Change from Baseline HbA1c, Mean","ALMS patients [3]; Week 12, N=12",−0.53%
same,"Change from Baseline HbA1c, Median","ALMS patients [3]; Week 12, N=12",−0.55%
same,"Change from Baseline HbA1c, Mean","ALMS patients [3]; Week 24, N=12",−0.24%
same,"Change from Baseline HbA1c, Median","ALMS patients [3]; Week 24, N=12",−0.05%
same,mean decrease in HbA1c from baseline,"ALMS patients [3]; after 12 weeks of treatment, p=0.0144",0.53%
same,HbA1c,ALMS patients [3]; EP Week 12 (Week 36),12.7% and 5.1% and 5.4% (3×) and 7.5% and 7.3% and 6.4% and 6.2% and 12%
same,HbA1c,ALMS patients [3]; EP Week 24 (Week 48),10.6% (2×) and 4.9% and 4.7% and 5.7% and 6.8% and 5.4% and 6.5% and 6.3% and 6.7%
same,HbA1c,ALMS patients [3]; EP Week 36 (Week 60),11.2% and 5.1% and 5.0% and 7.5% and 5.4% and 6.8% (2×) and 6.4% and 9.1%
same,HbA1c,ALMS patients [3]; EP Week 48 (Week 72),11.1% and 5.0% and 4.9%
same,HbA1c,ALMS patients [3]; Week 12,10.1% and 5.3% and 5.0% and 5.7% (2×) and 8.2% and 5.5% and 6.7% and 6.1% and 10.6% and 6.4% and 6.5%
same,HbA1c,ALMS patients [3]; Week 24,11.1% and 5.4% (2×) and 4.8% and 5.6% and 9.1% and 7.0% and 6.2% and 10.0% and 6.6% and 8.6% and 6.1%
